According to patent publication US12539333B2, “Tetracycline complexes with sustained activity” (FRAUNHOFER-GESELLSCHAFT ZUR FÖRDERUNG DER ANGEWANDTEN …, priority 2018, dated 2026):
In brackets after ≈: the same amount, converted by molar mass. Entries after “also recorded” stand apart in the source; their conditions may differ.

Columns and labels:
[1] = system: S. aureus ATCC 29213; experiment: Agar disc diffusion test; assay type: cell-based, Staphylococcus aureus; details: 30 μg of minocycline per disc; 35° C., 18 h
Protocol: . The procedure followed the recommendations set by EUCAST.
Test substance was the minocycline complex containing 10 mg/ml minocycline and controls were minocycline dissolved in ethanol (10 mg/ml), and pure ethanol. Solutions were diluted 3:7 with ethanol and immediately thereafter each 10 μl were pipetted to unloaded antibiotic test discs with a diameter of 6 mm (BD, Allschwil, Switzerland), thus each discs (except for ethanol control) contained 30 μg of minocycline. Overnight culture of S. aureus ATCC 29213 was suspended to McFarland 0.5, each 100 μl was spread on Mueller-Hinton-agar plate (Oxoid, Basingstoke, GB). Following the evaporation of the solvent, the test discs were placed on the plates. After incubation at 35° C. for 18 h, the diameters of the inhibition zones were measured.

[2] = Stability in aqueous environment (HPLC)
Protocol: For the stability investigations an Agilent 1200 Series system with a XTerra RP18 5 μm 3.9×150 column (Waters) was utilized. 10 μl sample volume were injected at a flowrate of 1.0 ml/min. For this method was also a gradient program applied. The mobile phase started with a composition of water/methanol (95/5+0.1% TFA) (A) and was shifted over 7 minutes to pure methanol (0.1% TFA) (B). After 3 minutes the mobile phase returned to solvent A within 1 minute. The retention time was 4.8 minutes. For the evaluation and extraction of the chromatograms, the Chem32 software was used.
For the stability investigation, 10 mg samples for minocycline and 20 mg for the complex were weighed into 4 ml glass vials. One of each vial was incubated in 4 ml of PBS pH 7.0 and another vial was exposed to 4 ml of an acidic solution at pH 2.3, which was adjusted with hydrochloric acid. Until the 9th day, samples were taken every day, while the removed volume was not replaced. From there on the intervals were stretched to 3 to 4 days.

[3] = system: Porphyromonas gingivalis ATCC 33277; experiment: MIC determination of eluates and calculated effective concentration of minocycline; assay type: cell-based; details: for Effective concentration of minocycline, calculated based on the MIC of the eluates (dilutions): P. ging.
Excerpt: (§1) In order to assess the release kinetics and biological activity of the active substances, an approach was chosen taking into consideration the conditions in the oral cavity, namely the flow rate (turnover) and composition of the sulcus in the gingival crevicular fluid (as described in Goodson, J M (2003), Periodontol 2000 31:43-54; Tew, J G et al. (1985), Infect Immun 49:487-93).

[4] = system: Streptococcus gordonii ATCC 10558; experiment: as above; assay type: cell-based; details: for Effective concentration of minocycline, calculated based on the MIC of the eluates (dilutions): S. gord.
Excerpt: as §1

For “1:2 Complex of Minocycline (Free Base) and Magnesium Stearate [Example 1]”, the “diameter of the inhibition zone” value [1] was 24 mm, the “time after which the minocycline peak is still visible” value ([2]; PBS pH 7.0, 37° C.) was no less than 3 weeks and the “decay in aqueous environment” value ([2]; neutral conditions, 37° C.) was “much slower”.

With CN(C)c1ccc(O)c2c1C[C@H]1C[C@H]3[C@H](N(C)C)C(O)=C(C(N)=O)C(=O)[C@@]3(O)C(O)=C1C2=O [Minocycline, (4S,4aS,5aR,12aR)-4,7-bis(dimethylamino)-1,10,11,12a-tetrahydroxy-3,12-dioxo-4a,5,5a,6-tetrahydro-4H-tetracene-2-carboxamide] the MIC ([3]; Porphyromonas gingivalis, ATCC33277, P. gingivalis ATCC 33277) was 0.25 µg/mL (≈ 0.546 µM), the “Effective concentration of minocycline, calculated based on the MIC of the eluates (dilutions)” value ([3]; eluate 1 h) was greater than 32000 and the “Effective concentration of minocycline, calculated based on the MIC of the eluates (dilutions)” value ([3]; eluate 2 h) was 2000. The “Effective concentration of minocycline, calculated based on the MIC of the eluates (dilutions)” value ([3]; eluate 4 h) was 1000, the “Effective concentration of minocycline, calculated based on the MIC of the eluates (dilutions)” value ([3]; eluate 24 h) was 500 and the “Effective concentration of minocycline, calculated based on the MIC of the eluates (dilutions)” value ([3]; eluate 2 d) was 62.5. The “Effective concentration of minocycline, calculated based on the MIC of the eluates (dilutions)” value ([3]; eluate 7 d) was 62.5, the “Effective concentration of minocycline, calculated based on the MIC of the eluates (dilutions)” value ([3]; eluate 14 d) was 4 and the “Effective concentration of minocycline, calculated based on the MIC of the eluates (dilutions)” value ([3]; eluate 21 d) was less than 1. The “Effective concentration of minocycline, calculated based on the MIC of the eluates (dilutions)” value ([3]; eluate 28 d) was less than 1, the “Effective concentration of minocycline, calculated based on the MIC of the eluates (dilutions)” value ([3]; eluate 35 d) was less than 1 and the “Effective concentration of minocycline, calculated based on the MIC of the eluates (dilutions)” value ([3]; eluate 42 d) was less than 1. The MIC ([4]; Streptococcus gordonii, ATCC10558, S. gordonii ATCC 10558) was 0.5 µg/mL (≈ 1.09 µM), the “Effective concentration of minocycline, calculated based on the MIC of the eluates (dilutions)” value ([4]; eluate 1 h) was greater than 16000 and the “Effective concentration of minocycline, calculated based on the MIC of the eluates (dilutions)” value ([4]; eluate 2 h) was 8000. For the same compound, the “Effective concentration of minocycline, calculated based on the MIC of the eluates (dilutions)” value ([4]; eluate 4 h) was 2000, the “Effective concentration of minocycline, calculated based on the MIC of the eluates (dilutions)” value ([4]; eluate 24 h) was 250 and the “Effective concentration of minocycline, calculated based on the MIC of the eluates (dilutions)” value ([4]; eluate 2 d) was 62.5. For the same compound, the “Effective concentration of minocycline, calculated based on the MIC of the eluates (dilutions)” value ([4]; eluate 7 d) was 4, the “Effective concentration of minocycline, calculated based on the MIC of the eluates (dilutions)” value ([4]; eluate 14 d) was less than 2 and the “Effective concentration of minocycline, calculated based on the MIC of the eluates (dilutions)” value ([4]; eluate 21 d) was less than 2. For the same compound, the “Effective concentration of minocycline, calculated based on the MIC of the eluates (dilutions)” value ([4]; eluate 28 d) was less than 2, the “Effective concentration of minocycline, calculated based on the MIC of the eluates (dilutions)” value ([4]; eluate 35 d) was less than 2 and the “Effective concentration of minocycline, calculated based on the MIC of the eluates (dilutions)” value ([4]; eluate 42 d) was less than 2. The “diameter of the inhibition zone” value [1] was 26 mm, the “time within which the minocycline peak vanishes” value ([2]; PBS pH 7.0, 37° C.) was no more than 3 days and the “decay in aqueous environment” value ([2]; acidic conditions pH 2.3, 37° C.) was “decomposition process is slower; also recorded: more moderate decay”. For the same compound, the “time to complete decomposition” value ([2]; buffer (PBS) pH 7.1, 37° C.) was 3 days.
